Test results: PubChem BioAssay AID248 (DTP/NCI, 2004)
Toxic doses and inconclusive results are not listed. Cut-off read from the data, not from the text of the source: active = T/C of 150% or more; inactive = T/C below 125%.

Test system: L1210 leukemia ip in BDF1 mice, survival T/C
Experiment: NCI In Vivo Anticancer Drug Screen. Data for tumor model L1210 Leukemia (intraperitoneal) in B6D2F1 (BDF1) mice
Settings: endpoint: mean survival time, higher = longer survival
Outline: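 Mice bearing the transplanted tumor received compound or vehicle. Survival of the treated group was divided by that of the vehicle-treated control group to give the ratio.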

[1] = dose: 100.0 mg/kg/injection, schedule: Q01DX001 (ip), vehicle: saline
[2] = dose: 400.0 mg/kg/injection, schedule: Q01DX001 (ip), vehicle: saline
[3] = dose: 100.0 mg/kg/injection, schedule: Q01DX009 (ip), vehicle: Klucel (hydroxypropylcellulose) (HPC)
[4] = dose: 200.0 mg/kg/injection, schedule: Q01DX009 (ip), vehicle: Klucel (hydroxypropylcellulose) (HPC)
[5] = dose: 100.0 mg/kg/injection, schedule: Q04DX003 (ip), vehicle: saline
[6] = dose: 200.0 mg/kg/injection, schedule: Q04DX003 (ip), vehicle: saline
[7] = dose: 400.0 mg/kg/injection, schedule: Q04DX003 (ip), vehicle: saline
[8] = dose: 75.0 mg/kg/injection, schedule: Q01DX001 (ip), vehicle: saline
[9] = dose: 150.0 mg/kg/injection, schedule: Q01DX001 (ip), vehicle: saline
[10] = dose: 300.0 mg/kg/injection, schedule: Q01DX001 (ip), vehicle: saline
[11] = dose: 100.0 mg/kg/injection, schedule: Q04DX003 (ip), vehicle: saline with Tween-80
[12] = dose: 100.0 mg/kg/injection, schedule: Q01DX009 (ip), vehicle: saline with Tween-80
[13] = dose: 200.0 mg/kg/injection, schedule: Q01DX009 (ip), vehicle: saline with Tween-80
[14] = dose: 200.0 mg/kg/injection, schedule: Q04DX003 (ip), vehicle: saline with Tween-80
[15] = dose: 400.0 mg/kg/injection, schedule: Q01DX009 (ip), vehicle: saline with Tween-80
[16] = dose: 400.0 mg/kg/injection, schedule: Q04DX003 (ip), vehicle: saline with Tween-80

Measured: T/C

O=C(OCc1ccccc1CN1CCOCC1)c1ccc([N+](=O)[O-])cc1Cl
inactive: dose: 25.0 mg/kg/injection, schedule: Q04DX002 (ip), vehicle: Klucel (hydroxypropylcellulose) (HPC) 92 % of control | dose: 50.0 mg/kg/injection, schedule: Q04DX002 (ip), vehicle: Klucel (hydroxypropylcellulose) (HPC) 106 % of control | dose: 100.0 mg/kg/injection, schedule: Q04DX002 (ip), vehicle: Klucel (hydroxypropylcellulose) (HPC) 100 % of control

C=CCNC(=S)NNC(=O)CCCC(=O)NNC(=S)NCC=C
inactive: dose: 50.0 mg/kg/injection, schedule: Q01DX001 (ip), vehicle: saline 90 % of control | [1] 93 % of control | [2] 102 % of control

COC(=O)c1cc(O)c(C(=O)OC)s1
inactive: [3] 101 % of control | [4] 98 % of control | dose: 400.0 mg/kg/injection, schedule: Q01DX009 (ip), vehicle: Klucel (hydroxypropylcellulose) (HPC) 95 % of control

O=C1CCC2(C/C1=N\Nc1ccccc1)OCCO2
inactive: [5] 100 % of control | [6] 96 % of control | [7] 100 % of control

CC1(C)NC(=O)C2CC21C (stereo not drawn)
inactive: dose: 100.0 mg/kg/injection, schedule: Q04DX002 (ip), vehicle: saline 91 % of control

NNc1ncnc2nc[nH]c12
inactive: dose: 12.0 mg/kg/injection, schedule: Q01DX015 (ip), vehicle: saline 93 % of control | dose: 25.0 mg/kg/injection, schedule: Q01DX015 (ip), vehicle: saline 101 % of control | dose: 50.0 mg/kg/injection, schedule: Q01DX015 (ip), vehicle: saline 104 % of control | [8] 105 % of control | dose: 100.0 mg/kg/injection, schedule: Q01DX015 (ip), vehicle: saline 116 % of control | [9] 102 % of control | [10] 114 % of control

CCOC(=O)C(C(=N)C#N)C(C)=O (stereo not drawn)
inactive: dose: 6.25 mg/kg/injection, schedule: Q04DX003 (ip), vehicle: saline with Tween-80 98 % of control | dose: 12.5 mg/kg/injection, schedule: Q04DX003 (ip), vehicle: saline with Tween-80 98 % of control | dose: 25.0 mg/kg/injection, schedule: Q04DX003 (ip), vehicle: saline with Tween-80 97 % of control | dose: 50.0 mg/kg/injection, schedule: Q04DX003 (ip), vehicle: saline with Tween-80 88 % of control | [11] 103 % of control

CCCCCCCC/C=C\CCCCCCCC(=O)OCCCCC
inactive: dose: 100.0 mg/kg/injection, schedule: Q01DX001 (ip), vehicle: Klucel (hydroxypropylcellulose) (HPC) 93 % of control | dose: 100.0 mg/kg/injection, schedule: Q01DX009 (ip), vehicle: saline sonified 102 % of control | [12] 108 % of control | [11] 93 % of control | dose: 200.0 mg/kg/injection, schedule: Q01DX001 (ip), vehicle: Klucel (hydroxypropylcellulose) (HPC) 92 % of control | dose: 200.0 mg/kg/injection, schedule: Q01DX009 (ip), vehicle: saline sonified 100 % of control | [13] 98 % of control | [14] 91 % of control | dose: 400.0 mg/kg/injection, schedule: Q01DX001 (ip), vehicle: Klucel (hydroxypropylcellulose) (HPC) 103 % of control | dose: 400.0 mg/kg/injection, schedule: Q01DX009 (ip), vehicle: saline sonified 93 % of control | [15] 95 % of control | [16] 95 % of control

C=C(C)C1(CC(C)C)C(=O)NC(=S)NC1=O
inactive: dose: 9.5 mg/kg/injection, schedule: Q01DX001 (ip), vehicle: other 100 % of control | dose: 19.0 mg/kg/injection, schedule: Q01DX001 (ip), vehicle: other 96 % of control | dose: 38.0 mg/kg/injection, schedule: Q01DX001 (ip), vehicle: other 96 % of control

COc1cc(CC#N)ccc1C
inactive: dose: 12.5 mg/kg/injection, schedule: Q01DX009 (ip), vehicle: alcohol 104 % of control | dose: 25.0 mg/kg/injection, schedule: Q01DX009 (ip), vehicle: alcohol 98 % of control | dose: 50.0 mg/kg/injection, schedule: Q01DX009 (ip), vehicle: alcohol 101 % of control

O=[N+]([O-])c1ccc(OCc2ccccc2S(=O)(=O)F)c(Cl)c1
inactive: dose: 100.0 mg/kg/injection, schedule: Q04DX003 (ip), vehicle: gum acacia 92 % of control | dose: 200.0 mg/kg/injection, schedule: Q04DX003 (ip), vehicle: gum acacia 93 % of control | dose: 400.0 mg/kg/injection, schedule: Q04DX003 (ip), vehicle: gum acacia 100 % of control

O=C(O)c1cccc(O)c1[N+](=O)[O-]
inactive: [5] 97 % of control | [6] 95 % of control | [7] 97 % of control

OCC(c1ccccc1)[P+](c1ccccc1)(c1ccccc1)c1ccccc1 (stereo not drawn)
inactive: dose: 5.0 mg/kg/injection, schedule: Q01DX001 (ip), vehicle: saline 94 % of control | dose: 10.0 mg/kg/injection, schedule: Q01DX001 (ip), vehicle: saline 97 % of control | dose: 20.0 mg/kg/injection, schedule: Q01DX001 (ip), vehicle: saline 103 % of control | dose: 40.0 mg/kg/injection, schedule: Q01DX001 (ip), vehicle: saline 97 % of control | dose: 80.0 mg/kg/injection, schedule: Q01DX001 (ip), vehicle: saline 97 % of control

O=C1OC(c2ccc(Cl)cc2)=N/C1=C\c1ccc(Cl)cc1
inactive: [12] 91 % of control | [13] 94 % of control | [15] 91 % of control

Cc1ccc(C(C)C)c(OC(=O)Nc2ccc(S(=O)(=O)N(C)C)cc2)c1
inactive: [1] 103 % of control | dose: 200.0 mg/kg/injection, schedule: Q01DX001 (ip), vehicle: saline 100 % of control | [2] 101 % of control

O=C(Nc1cc(C(F)(F)F)ccc1Cl)Nc1cc(Cl)c(Oc2ccc(Cl)cc2)cc1S(=O)(=O)O
inactive: dose: 100.0 mg/kg/injection, schedule: Q04DX003 (ip), vehicle: saline sonified 105 % of control | dose: 200.0 mg/kg/injection, schedule: Q04DX003 (ip), vehicle: saline sonified 100 % of control

O=CN/N=C/c1ccc([N+](=O)[O-])cc1
inactive: [8] 92 % of control | [9] 87 % of control | [10] 89 % of control

Nc1ccc(CCc2[nH]c(N)nc(=S)c2-c2ccc(Cl)cc2)cc1
inactive: [14] 110 % of control | [16] 86 % of control

CNC(=O)Oc1ccc(/C=N/NC(=O)c2ccncc2)cc1OC
inactive: [3] 97 % of control | [4] 97 % of control

CCC(C)(CC)OC(N)=O
inactive: dose: 12.5 mg/kg/injection, schedule: Q01DX009 (ip), vehicle: saline with Tween-80 100 % of control | dose: 25.0 mg/kg/injection, schedule: Q01DX009 (ip), vehicle: saline with Tween-80 102 % of control | dose: 25.0 mg/kg/injection, schedule: Q04DX003 (ip), vehicle: saline 100 % of control | dose: 50.0 mg/kg/injection, schedule: Q01DX009 (ip), vehicle: saline with Tween-80 94 % of control | dose: 50.0 mg/kg/injection, schedule: Q04DX003 (ip), vehicle: saline 100 % of control | [12] 105 % of control | [5] 102 % of control | [13] 93 % of control | [6] 96 % of control
